Measured values from paper PMC10141580, “Cyclic Dichalcogenides Extend the Reach of Bioreductive Prodrugs to Harness Thiol/Disulfide Oxidoreductases: Applications to seco-Duocarmycins Targeting the Thioredoxin System” (ACS Central Science, 2023).
“And” between values parts separate entries of the source, which are not always exact repeats. Identical values can stand only once. Like-named read-outs stand apart in the source and are kept apart here.

Test system: panel of 140 standard cancer cell lines
Assay: ProliFiler-140 cancer cell line screen (CellTiterGlo, 72 h)
Type: cell-based
Method: Incubations were performed for 72 h before automated viability readout with CellTiterGlo (Figure 8).
End of Figure S11 (part 5 of 5): ProliFiler-140 cancer cell line screening for cytotoxicity of the prodrugs.
8-data-point dose response curves from CellTiter-Glo® viability readout.
ProliFiler-140 cell line panel part V

COc1cc2cc(C(=O)N3C[C@@H](CCl)c4c3cc(OC(=O)N(CCC(=O)N3CCN(C)CC3)[C@H]3CCSSC3)c3ccccc43)[nH]c2c(OC)c1OC [P-SS60-CBI-TMI]
Reductive Activation Index (786-O (Kidney)): 5.22
IC50 (786-O (Kidney), read-out: IC50 [M] (ProliFiler-140)): 2.26e-08 M and 2.3e-08 M
Reductive Activation Index (A172 (Brain)): 4.87
IC50 (A172 (Brain), read-out: IC50 [M] (ProliFiler-140)): 1.18e-07 M and 1.2e-07 M
Reductive Activation Index (A375 (Skin)): 5.08
IC50 (A375 (Skin), read-out: IC50 [M] (ProliFiler-140)): 3.23e-08 M and 3.2e-08 M
Reductive Activation Index (A427 (Lung)): 5.0 and 5.03
IC50 (A427 (Lung), read-out: IC50 [M] (ProliFiler-140)): 1.6e-07 M and 1.64e-07 M
IC50 (A431 (Skin), read-out: IC50 [M] (ProliFiler-140)): 4.05e-08 M and 4e-08 M
Reductive Activation Index (A498 (Kidney)): 5.96
IC50 (A498 (Kidney), read-out: IC50 [M] (ProliFiler-140)): 5.04e-08 M and 5e-08 M
IC50 (A498, read-out: IC50): 5e-08 M
Reductive Activation Index (A549 (Lung)): 6.4
IC50 (A549 (Lung), read-out: IC50 [M] (ProliFiler-140)): 1.2e-07 M
IC50 (A549, read-out: IC50): 1.2e-07 M
IC50 (A2058 (Skin), read-out: IC50 [M] (ProliFiler-140)): 1.5e-08 M
IC50 (A2780 (Ovary), read-out: IC50 [M] (ProliFiler-140)): 1.2e-08 M
Reductive Activation Index (AsPC-1 (Pancreas)): 8.2
IC50 (AsPC-1 (Pancreas), read-out: IC50 [M] (ProliFiler-140)): 2.6e-07 M and 2.63e-07 M
Reductive Activation Index (BEN (Lung)): 13
IC50 (BEN (Lung), read-out: IC50 [M] (ProliFiler-140)): 1.1e-07 M and 1.12e-07 M
Reductive Activation Index (BT-20 (Breast)): 4.6
IC50 (BT-20 (Breast), read-out: IC50 [M] (ProliFiler-140)): 2.4e-07 M and 2.42e-07 M
fold-change of IC50 relative to P-CC60 (BxPC-3): 6
IC50 (BxPC-3 (Pancreas), read-out: IC50 [M] (ProliFiler-140)): 1.08e-07 M and 1.1e-07 M
IC50 (COLO 205, read-out: IC50): 1.6e-07 M
IC50 (COR-L279 (Lung), read-out: IC50 [M] (ProliFiler-140)): 1.4e-08 M and 1.43e-08 M
IC50 (COV434 (Ovary), read-out: IC50 [M] (ProliFiler-140)): 2.2e-08 M and 2.24e-08 M
Reductive Activation Index (Caki-1 (Kidney)): 5.23
IC50 (Caki-1 (Kidney), read-out: IC50 [M] (ProliFiler-140)): 6.29e-08 M and 6.3e-08 M
Reductive Activation Index (Caki-2 (Kidney)): 7.2
IC50 (Caki-2 (Kidney), read-out: IC50 [M] (ProliFiler-140)): 2.1e-07 M
Reductive Activation Index (Calu-6 (Lung)): 6.64
IC50 (Calu-6 (Lung), read-out: IC50 [M] (ProliFiler-140)): 5.16e-08 M and 5.2e-08 M
Reductive Activation Index (Colo 205 (Colon)): 4.9
IC50 (Colo 205 (Colon), read-out: IC50 [M] (ProliFiler-140)): 1.6e-07 M and 1.57e-07 M
Reductive Activation Index (DLD-1 (Colon)): 4.69 and 4.7
IC50 (DLD-1 (Colon), read-out: IC50 [M] (ProliFiler-140)): 1.69e-07 M and 1.7e-07 M
IC50 (DU-145 (Prostate), read-out: IC50 [M] (ProliFiler-140)): 3.6e-08 M and 3.58e-08 M
IC50 (DV90 (Lung), read-out: IC50 [M] (ProliFiler-140)): 1.3e-08 M and 1.32e-08 M
IC50 (Detroit562 (Head/Neck), read-out: IC50 [M] (ProliFiler-140)): 4.27e-08 M and 4.3e-08 M
Reductive Activation Index (EFM-19 (Breast)): 4.2 and 4.18
IC50 (EFM-19 (Breast), read-out: IC50 [M] (ProliFiler-140)): 2.3e-07 M
Reductive Activation Index (EFM-192A (Breast)): 5.9
IC50 (EFM-192A (Breast), read-out: IC50 [M] (ProliFiler-140)): 3e-07 M and 3.01e-07 M
Reductive Activation Index (EFO-27 (Ovary)): 5.7
IC50 (EFO-27 (Ovary), read-out: IC50 [M] (ProliFiler-140)): 1.6e-07 M and 1.58e-07 M
IC50 (EPLC-272H (Lung), read-out: IC50 [M] (ProliFiler-140)): 7.9e-08 M
Reductive Activation Index (H4 (Brain)): 5.36
IC50 (H4 (Brain), read-out: IC50 [M] (ProliFiler-140)): 1.51e-08 M and 1.5e-08 M
Reductive Activation Index (H460 (Lung)): 7.2
IC50 (H460 (Lung), read-out: IC50 [M] (ProliFiler-140)): 7.1e-09 M and 7.11e-09 M
IC50 (H1299 (Lung), read-out: IC50 [M] (ProliFiler-140)): 7.85e-08 M and 7.9e-08 M
IC50 (H2228 (Lung), read-out: IC50 [M] (ProliFiler-140)): 5.68e-08 M and 5.7e-08 M
IC50 (HCC38 (Breast), read-out: IC50 [M] (ProliFiler-140)): 1.9e-08 M
Reductive Activation Index (HCC202 (Breast)): 7.1
IC50 (HCC202 (Breast), read-out: IC50 [M] (ProliFiler-140)): 1.3e-07 M and 1.26e-07 M
Reductive Activation Index (HCC827 (Lung)): 7.3
IC50 (HCC827 (Lung), read-out: IC50 [M] (ProliFiler-140)): 1.9e-07 M
Reductive Activation Index (HCC 1569 (Breast)): 8.2
IC50 (HCC 1569 (Breast), read-out: IC50 [M] (ProliFiler-140)): 1.2e-07 M and 1.21e-07 M
IC50 (HCT116 (Colon), read-out: IC50 [M] (ProliFiler-140)): 6.94e-08 M and 6.9e-08 M
Reductive Activation Index (HCT-15 (Colon)): 5.23
IC50 (HCT-15 (Colon), read-out: IC50 [M] (ProliFiler-140)): 1.04e-07 M and 1e-07 M
IC50 (HCT-15, read-out: IC50): 1e-07 M
Reductive Activation Index (HEC-1-A (Endometrium)): 6.5
IC50 (HEC-1-A (Endometrium), read-out: IC50 [M] (ProliFiler-140)): 2.8e-07 M and 2.85e-07 M
Reductive Activation Index (HEC-1-B (Endometrium)): 4.0
IC50 (HEC-1-B (Endometrium), read-out: IC50 [M] (ProliFiler-140)): 8.3e-07 M and 8.33e-07 M
IC50 (HL-60 (Blood), read-out: IC50 [M] (ProliFiler-140)): 1.8e-08 M and 1.83e-08 M
Reductive Activation Index (HT-29 (Colon)): 5.3
IC50 (HT-29 (Colon), read-out: IC50 [M] (ProliFiler-140)): 1.9e-07 M and 1.88e-07 M
IC50 (HT-29, read-out: IC50): 1.9e-07 M
IC50 (HT-1080 (Fibrosarcoma), read-out: IC50 [M] (ProliFiler-140)): 5.01e-08 M and 5e-08 M
Reductive Activation Index (HeLa (Ovary)): 13.55
Reductive Activation Index (Hep3B2.1-7 (Liver)): 5.6
IC50 (Hep3B2.1-7 (Liver), read-out: IC50 [M] (ProliFiler-140)): 2.4e-07 M and 2.37e-07 M
Reductive Activation Index (Hs 746T (Stomach)): 7.7
IC50 (Hs 746T (Stomach), read-out: IC50 [M] (ProliFiler-140)): 1.3e-07 M and 1.29e-07 M
Reductive Activation Index (HuH7 (Liver)): 5.70
IC50 (HuH7 (Liver), read-out: IC50 [M] (ProliFiler-140)): 1.14e-07 M and 1.1e-07 M
Reductive Activation Index (Hutu 80 (Duodenum)): 5.42 and 5.4
IC50 (Hutu 80 (Duodenum), read-out: IC50 [M] (ProliFiler-140)): 9.92e-09 M and 9.9e-09 M
IC50 (Ishikawa (Endometrium), read-out: IC50 [M] (ProliFiler-140)): 7.1e-09 M and 7.07e-09 M
IC50 (J82 (Bladder), read-out: IC50 [M] (ProliFiler-140)): 9.88e-08 M and 9.9e-08 M
Reductive Activation Index (JIMT-1 (Breast)): 8.4
IC50 (JIMT-1 (Breast), read-out: IC50 [M] (ProliFiler-140)): 1.9e-07 M
IC50 (JVM-3 (Blood), read-out: IC50 [M] (ProliFiler-140)): 8.72e-09 M and 8.7e-09 M
IC50 (Jurkat (Blood), read-out: IC50 [M] (ProliFiler-140)): 1.64e-08 M and 1.6e-08 M
Reductive Activation Index (K562 (Blood)): 5.3
IC50 (K562 (Blood), read-out: IC50 [M] (ProliFiler-140)): 2.1e-07 M and 2.07e-07 M
Reductive Activation Index (KARPAS 299 (Blood)): 4.42
IC50 (KARPAS 299 (Blood), read-out: IC50 [M] (ProliFiler-140)): 1.6e-07 M
Reductive Activation Index (KG-1 (Blood)): 4.67
IC50 (KG-1 (Blood), read-out: IC50 [M] (ProliFiler-140)): 1.33e-07 M and 1.3e-07 M
Reductive Activation Index (KG-1 a (Blood)): 5.26
IC50 (KG-1 a (Blood), read-out: IC50 [M] (ProliFiler-140)): 1.05e-07 M and 1e-07 M
IC50 (KMS-12-BM (Blood), read-out: IC50 [M] (ProliFiler-140)): 6.64e-08 M and 6.6e-08 M
Reductive Activation Index (Kato III (Stomach)): 4.3
IC50 (Kato III (Stomach), read-out: IC50 [M] (ProliFiler-140)): 3.7e-07 M and 3.72e-07 M
Reductive Activation Index (LN229 (Brain)): 5.21
IC50 (LN229 (Brain), read-out: IC50 [M] (ProliFiler-140)): 1.39e-07 M and 1.4e-07 M
IC50 (LOU-NH91 (Lung), read-out: IC50 [M] (ProliFiler-140)): 7.5e-08 M and 7.46e-08 M
IC50 (LOVO (Colon), read-out: IC50 [M] (ProliFiler-140)): 3.37e-08 M and 3.4e-08 M
IC50 (LP-1 (Blood), read-out: IC50 [M] (ProliFiler-140)): 1.7e-07 M and 1.69e-07 M
Reductive Activation Index (LnCap (Prostate)): 8.0
IC50 (LnCap (Prostate), read-out: IC50 [M] (ProliFiler-140)): 1.1e-07 M and 1.12e-07 M
Reductive Activation Index (M07e (Blood)): 8.55
IC50 (M07e (Blood), read-out: IC50 [M] (ProliFiler-140)): 1.62e-08 M and 1.6e-08 M
Reductive Activation Index (MCAS (Ovary)): 6.5 and 6.53
IC50 (MCAS (Ovary), read-out: IC50 [M] (ProliFiler-140)): 1.3e-07 M and 1.25e-07 M
IC50 (MCF-7 (Breast), read-out: IC50 [M] (ProliFiler-140)): 4.5e-08 M and 4.48e-08 M
IC50 (MCF-7, read-out: IC50): 4.5e-08 M
Reductive Activation Index (MDA MB 231 (Breast)): 4.24
IC50 (MDA MB 231 (Breast), read-out: IC50 [M] (ProliFiler-140)): 1.74e-07 M and 1.7e-07 M
Reductive Activation Index (MDA MB 435 (Skin)): 6.1
IC50 (MDA MB 435 (Skin), read-out: IC50 [M] (ProliFiler-140)): 1.8e-07 M and 1.76e-07 M
IC50 (MDA-MB-468 (Breast), read-out: IC50 [M] (ProliFiler-140)): 3.1e-08 M
IC50 (MDA-MB-468, read-out: IC50): 3.1e-08 M
IC50 (MEC-1 (Blood), read-out: IC50 [M] (ProliFiler-140)): 1.5e-08 M and 1.51e-08 M
